These results are taken from US10961551B2, “Process for producing at least one metabolite of interest by conversion of a pentose in a microorganism” (INSTITUT NATIONAL DE LA RECHERCHE AGRONOMIQUE—INRA, priority 2014, dated 2021).

Data set [1] addresses T1, Fructose-16bP aldolase FbaB (fructose-1,6 bisphosphate aldolase B), E. coli, SEQ ID NO:9 (Escherichia coli, UniProt P0A991).
T1 sequence (P0A991 1-350): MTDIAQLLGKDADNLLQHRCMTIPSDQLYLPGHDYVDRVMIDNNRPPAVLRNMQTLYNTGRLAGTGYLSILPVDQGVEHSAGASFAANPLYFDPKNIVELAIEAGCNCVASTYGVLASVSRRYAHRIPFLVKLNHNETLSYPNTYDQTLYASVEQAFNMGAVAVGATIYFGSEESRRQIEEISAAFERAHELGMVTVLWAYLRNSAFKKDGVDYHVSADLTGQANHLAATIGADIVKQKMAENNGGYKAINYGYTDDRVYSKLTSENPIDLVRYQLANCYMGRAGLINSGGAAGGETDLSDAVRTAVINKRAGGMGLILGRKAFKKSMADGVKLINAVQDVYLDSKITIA
As to the kind of experiment: Kinetic parameters of candidate aldolase by coupled NADH consumption assay. The class given is biochemical. The note with it: Hepes buffer pH 7, NADH consumption at 340 nm. As for the experimental part:
(§1) The cloning of the candidate aldolases was done by amplifying aldoB, fbaB and agaY by PCR (using, respectively, the primer pairs P5/P6, P7/P8 and P11/P12 listed in table 3). This amplification was performed from the plasmid peX-A-aldoB carrying aldoB with codon optimization (Eurofins) or from the E. coli genomic DNA for fbaB and agaY, respectively. The fragments were then cloned in pGEM (Invitrogen). […] The ligation product is transformed in the E. coli strain BL21(DE3).

Data set [2] concerns the target T2, Fructose-16bP aldolase Aldo-B (aldolase B), H. sapiens, SEQ ID NO:2 (Homo sapiens, UniProt P05062).
T2 sequence (P05062 1-364): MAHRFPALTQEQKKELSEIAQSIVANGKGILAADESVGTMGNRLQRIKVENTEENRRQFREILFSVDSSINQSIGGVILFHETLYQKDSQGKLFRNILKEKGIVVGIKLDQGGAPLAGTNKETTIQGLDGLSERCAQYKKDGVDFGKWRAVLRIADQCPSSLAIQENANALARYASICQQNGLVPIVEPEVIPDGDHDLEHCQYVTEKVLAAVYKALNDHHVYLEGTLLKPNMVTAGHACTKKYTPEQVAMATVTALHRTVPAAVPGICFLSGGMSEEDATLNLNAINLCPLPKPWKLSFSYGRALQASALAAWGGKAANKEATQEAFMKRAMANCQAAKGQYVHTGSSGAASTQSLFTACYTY
The description is as above. In kind it is biochemical. The note with it: Hepes buffer pH 7, NADH consumption at 340 nm. As for the experimental part: as §1

Data set [3] addresses T3, Ketohexokinase Khk-C (ketohexokinase C), H. sapiens, SEQ ID NO:1 (Homo sapiens, UniProt P50053).
T3 sequence (P50053 1-298): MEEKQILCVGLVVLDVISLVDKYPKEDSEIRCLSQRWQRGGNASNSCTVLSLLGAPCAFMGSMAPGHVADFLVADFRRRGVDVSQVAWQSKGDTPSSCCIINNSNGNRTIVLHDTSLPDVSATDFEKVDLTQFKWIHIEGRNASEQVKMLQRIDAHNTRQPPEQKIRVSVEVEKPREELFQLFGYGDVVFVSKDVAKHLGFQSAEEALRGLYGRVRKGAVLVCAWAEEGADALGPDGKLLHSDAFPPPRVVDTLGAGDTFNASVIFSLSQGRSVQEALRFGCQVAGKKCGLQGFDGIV
The note with it: 4 mM ATP, Hepes buffer pH 7, NADH at 340 nm.

Data set [4] deals with T4, L-fuculokinase FucK (fuculose kinase), E. coli, SEQ ID NO:5 (Escherichia coli, UniProt P11553).
T4 sequence (P11553 1-472): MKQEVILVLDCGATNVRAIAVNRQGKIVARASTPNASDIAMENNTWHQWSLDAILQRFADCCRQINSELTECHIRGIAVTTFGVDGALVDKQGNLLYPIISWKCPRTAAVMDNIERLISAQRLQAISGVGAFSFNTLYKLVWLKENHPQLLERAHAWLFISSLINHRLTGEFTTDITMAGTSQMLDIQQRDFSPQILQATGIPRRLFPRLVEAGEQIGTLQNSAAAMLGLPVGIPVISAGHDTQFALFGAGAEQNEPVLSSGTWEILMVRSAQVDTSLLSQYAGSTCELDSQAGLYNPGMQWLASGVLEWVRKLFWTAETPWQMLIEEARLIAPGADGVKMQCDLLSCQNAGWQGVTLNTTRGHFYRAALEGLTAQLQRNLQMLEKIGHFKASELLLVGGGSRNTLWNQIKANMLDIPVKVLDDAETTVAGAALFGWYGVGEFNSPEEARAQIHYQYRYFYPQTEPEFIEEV
As to the kind of experiment: Kinetic parameters of candidate kinase by pyruvate kinase/lactate dehydrogenase coupling reaction. The class given is biochemical. The note with it: Table 1A; 4 mM ATP, Hepes buffer pH 7, NADH at 340 nm.

In data set [5] the target is (L)-rhamnulose kinase RhaB, E. coli, SEQ ID NO:6 (Escherichia coli, UniProt P32171). The data set is described as above. The class given is biochemical. The note with it: Table 1A; 4 mM ATP, Hepes buffer pH 7, NADH at 340 nm.
(L)-rhamnulose kinase RhaB, E. coli, SEQ ID NO:6, sequence (P32171 whole entry): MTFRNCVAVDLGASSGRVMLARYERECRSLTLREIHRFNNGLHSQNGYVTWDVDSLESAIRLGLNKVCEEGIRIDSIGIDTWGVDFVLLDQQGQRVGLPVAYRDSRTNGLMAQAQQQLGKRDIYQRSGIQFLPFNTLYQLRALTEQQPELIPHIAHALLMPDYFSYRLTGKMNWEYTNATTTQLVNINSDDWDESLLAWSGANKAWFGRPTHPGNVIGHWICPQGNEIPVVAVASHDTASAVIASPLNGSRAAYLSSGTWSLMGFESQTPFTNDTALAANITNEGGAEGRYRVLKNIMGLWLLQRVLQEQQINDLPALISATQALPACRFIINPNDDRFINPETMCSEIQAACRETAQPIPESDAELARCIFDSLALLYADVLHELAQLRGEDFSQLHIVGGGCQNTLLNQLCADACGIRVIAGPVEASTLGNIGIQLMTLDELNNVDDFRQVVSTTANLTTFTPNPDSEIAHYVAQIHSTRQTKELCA
Data set [6] in a line: Kinase kinetic parameters on (L)-ribulose (pyruvate kinase/lactate dehydrogenase coupling reaction). In kind it is biochemical. From the text:
The same approach was used to characterize these parameters on (L)-ribulose: […]

The nature of data set [7]: Kinase kinetic parameters on (D)-xylulose (pyruvate kinase/lactate dehydrogenase coupling reaction). The class given is biochemical.
Substrate in data set [8]: O=P(O)(O)OC[C@H]1OC(O)(COP(=O)(O)O)[C@@H](O)[C@@H]1O
Put plainly: purified protein, by the assay type. The note with it: other: Hepes buffer pH 7, NADH consumption at 340 nm, 37.0 °C.

A short description of data set [9]: Aldolase kinetic parameters on (D)-xylulose-1-phosphate (NADH-coupled assay). In kind it is biochemical.
Data set [10] in a line: Aldolase kinetic parameters on (L)-ribulose-1-phosphate (NADH-coupled assay). The class given is biochemical. From the text:
(L)-ribulose-1 kinase: (L)-ribulose+ATP→(L)-ribulose-1P+ADP (L)-ribulose-1P aldolase: (L)-ribulose-1P→DHAP+glycolaldehyde Glycerol-3P dehydrogenase: DHAP+NADH→Glycerol-3P+NAD

Substrate in data set [11]: C[C@H](O)[C@@H](O)[C@@H](O)C(=O)CO
Put plainly: Kinetic parameters of candidate kinase by pyruvate kinase/lactate dehydrogenase coupling reaction. The class given is biochemical, E. coli. The note with it: other: Table 1A, 4 mM ATP, Hepes buffer pH 7, NADH at 340 nm, 37.0 °C.

Read-outs that look alike come from different tables or passages of the source.

As for `O=C(COP(=O)(O)O)[C@@H](O)[C@H](O)CO` [(D)-Xylulose-1P, (D)-xylulose-1-phosphate], the figures for the Vmax in data set [1] and in data set [2] were 0.18 ± 0.04 U/mg and 0.81 ± 0.2 U/mg, respectively.

`O=C(CO)[C@@H](O)[C@@H](O)CO` [(L)-ribulose]: in data set [3] (Table 1B), the Km amounted to 550 µM and the Vmax is on record as 3.5 U/mg.

With `O=C(CO)[C@@H](O)[C@H](O)CO` [(D)-xylulose], the Km result was “ns” in [4], “ns” in data set [5] and 600 µM in data set [3] (Table 1A). The Vmax was determined as 0.1 U/mg in data set [4], 18.7 U/mg in [5] and 3.1 U/mg in data set [3] (Table 1A).

In the case of “Khk-C: isoform C of ketohexokinase of H. sapiens, encoded by khkC gene SEQ ID NO:1, expressed from pET28a and purified”, the “functional on (L)-ribulose” value in data set [6] is on record as “functional”. In addition, in data set [7], the “functional on (D)-xylulose” value was “functional”.

Regarding `O=C(COP(=O)(O)O)[C@@H](O)[C@@H](O)CO` [(L)-Ribulose-1P, (L)-ribulose-1-phosphate], the Vmax in data set [1] is 0.06 ± 0.01 U/mg; in data set [2], 0.00 U/mg.

With `OCC1(O)OC[C@@H](O)[C@@H](O)[C@@H]1O` (stereo partly drawn) [fructose], in data set [3] (Table 1A), the Km was 720 µM and the Vmax is given as 6 U/mg. Besides, in data set [3] (Table 1B), the Km came to 310 ± 100 µM and the Vmax is 6.59 ± 1.4 U/mg.

B1: Fructose-16bP aldolase FbaB (fructose-1,6 bisphosphate aldolase B), E. coli, SEQ ID NO:9 (Escherichia coli K-12) (protein)
chain: MTDIAQLLGKDADNLLQHRCMTIPSDQLYLPGHDYVDRVMIDNNRPPAVLRNMQTLYNTGRLAGTGYLSILPVDQGVEHSAGASFAANPLYFDPKNIVELAIEAGCNCVASTYGVLASVSRRYAHRIPFLVKLNHNETLSYPNTYDQTLYASVEQAFNMGAVAVGATIYFGSEESRRQIEEISAAFERAHELGMVTVLWAYLRNSAFKKDGVDYHVSADLTGQANHLAATIGADIVKQKMAENNGGYKAINYGYTDDRVYSKLTSENPIDLVRYQLANCYMGRAGLINSGGAAGGETDLSDAVRTAVINKRAGGMGLILGRKAFKKSMADGVKLINAVQDVYLDSKITIA
Turning to B1, in data set [8], the Km was 330 ± 70 µM and the Vmax stood at 0.52 ± 0.1 U/mg. For the same molecule, the “activity on (D)-xylulose-1P” value in data set [9] is “has an activity”. For the same molecule, the “activity on (L)-ribulose-1P” value in data set [10] was “has an activity”.

B2: Fructose-16bP aldolase Aldo-B (aldolase B), H. sapiens, SEQ ID NO:2 (Homo sapiens) (protein)
chain: MAHRFPALTQEQKKELSEIAQSIVANGKGILAADESVGTMGNRLQRIKVENTEENRRQFREILFSVDSSINQSIGGVILFHETLYQKDSQGKLFRNILKEKGIVVGIKLDQGGAPLAGTNKETTIQGLDGLSERCAQYKKDGVDFGKWRAVLRIADQCPSSLAIQENANALARYASICQQNGLVPIVEPEVIPDGDHDLEHCQYVTEKVLAAVYKALNDHHVYLEGTLLKPNMVTAGHACTKKYTPEQVAMATVTALHRTVPAAVPGICFLSGGMSEEDATLNLNAINLCPLPKPWKLSFSYGRALQASALAAWGGKAANKEATQEAFMKRAMANCQAAKGQYVHTGSSGAASTQSLFTACYTY
Consider B2, for which, in [8], the Michaelis constant (Km) came out at 30 ± 10 µM and the Vmax came to 0.46 ± 0.05 U/mg. The “activity on (D)-xylulose-1P” value in [9] was “has an activity”.

B3: L-fuculokinase FucK (fuculose kinase), E. coli, SEQ ID NO:5 (Escherichia coli K-12) (protein)
chain: MKQEVILVLDCGATNVRAIAVNRQGKIVARASTPNASDIAMENNTWHQWSLDAILQRFADCCRQINSELTECHIRGIAVTTFGVDGALVDKQGNLLYPIISWKCPRTAAVMDNIERLISAQRLQAISGVGAFSFNTLYKLVWLKENHPQLLERAHAWLFISSLINHRLTGEFTTDITMAGTSQMLDIQQRDFSPQILQATGIPRRLFPRLVEAGEQIGTLQNSAAAMLGLPVGIPVISAGHDTQFALFGAGAEQNEPVLSSGTWEILMVRSAQVDTSLLSQYAGSTCELDSQAGLYNPGMQWLASGVLEWVRKLFWTAETPWQMLIEEARLIAPGADGVKMQCDLLSCQNAGWQGVTLNTTRGHFYRAALEGLTAQLQRNLQMLEKIGHFKASELLLVGGGSRNTLWNQIKANMLDIPVKVLDDAETTVAGAALFGWYGVGEFNSPEEARAQIHYQYRYFYPQTEPEFIEEV
For B3, in data set [11], the Km is 60 µM and the Vmax is 20 U/mg.

The Km is the concentration of substrate that gives half-maximal velocity.
